Source: patent publication US20220168430A1, “THERAPEUTIC METHODS FOR TREATING HEPATITIS B” (priority 2019, published 2022)
Like-named read-outs stand apart in the source and are kept apart here.

What was measured:
HBV rcDNA = assay: Dual agent combination in HepDE19 cells, rcDNA by Quantigene 2.0 bDNA assay (Examples 5-8); assay type: cell-based, HBV; HepDE19 (HepG2 human hepatocarcinoma derived); conditions: Hepatitis B virus; for inhibition at 0.002 µM: TAF 0.002 μM alone; for inhibition at 0.007 µM: TAF 0.007 μM alone; for inhibition at 0.02 µM: TAF 0.020 μM alone; for inhibition at 0.06 µM: TAF 0.060 μM alone; for inhibition at 0.001 µM: TAF 0.001 μM alone; for inhibition at 0.003 µM: TAF 0.003 μM alone; for inhibition at 0.005 µM: TAF 0.005 μM alone; for inhibition at 0.01 µM: TAF 0.010 μM alone; for inhibition at 0.04 µM: TAF 0.040 μM alone; for inhibition at 0.08 µM: TAF 0.080 μM alone; for inhibition at 0.16 µM: TAF 0.160 μM alone; for inhibition at 0.32 µM: TAF 0.320 μM alone
Procedure: In vitro dual agent combination studies were conducted using the method of Prichard and Shipman 1990 (Prichard M N, Shipman C, Jr. 1990. Antiviral Res 14:181-205). The HepDE19 cell culture system is a HepG2 (human hepatocarcinoma) derived cell line that supports HBV DNA replication and cccDNA formation under control the control of a CMV Tet-off promoter system (Guo et al. 2007. J Virol 81:12472-84). HepDE19 (50,000 cells/well) were plated in 96 well collagen-coated tissue-culture treated microtiter plates in DMEM/F12 medium supplemented with 10% fetal bovine serum+1% penicillin-streptomycin with tetracycline (1 μg/mL) and incubated in a humidified incubator at 37° C. and 5% CO2 overnight. Next day, the cells were switched to fresh medium without tetracycline and incubated for 4 hrs at 37° C. and 5% CO2. The cells were switched to fresh medium and treated with inhibitor A and inhibitor B, at concentration range spanning their respective EC50 values. […] The two inhibitors were tested both singly as well as in combinations in a checkerboard fashion such that each concentration of inhibitor A was combined with each concentration of inhibitor B to determine their combination effects on inhibition of rcDNA production. There were four replicates of each concentration combination in each experiment. The plates were incubated for 7 days in a humidified incubator at 37° C. and 5% CO2. The level of rcDNA present in the wells was measured using a Quantigene 2.0 bDNA assay kit (Affymetrix, Santa Clara, Calif.) with HBV specific custom probe set (genotype D ayw) and according to the manufacturer's instructions and read using a luminescence plate reader and the relative luminescence units (RLU) data generated from each well was calculated as % inhibition of the untreated control wells and analyzed using the MacSynergy II program to determine whether the combinations were synergistic, additive or antagonistic using the interpretive guidelines established by Prichard and Shipman (Prichard M N, Shipman C, Jr. 1990. […] Each experiment was repeated at least three times and the averages and standard deviations of individual determinations was calculated to derive the conclusion. Concurrently, in each experiment, the effect of inhibitor combinations on cell viability was assessed using replicate plates in triplicates that were used to determine the ATP content as a measure of cell viability using the Cell-Titer Glo reagent (Promega, Madison, Wis.) as per the manufacturer's instructions.

HepG2.2.15 cells = assay type: cell-based, human; conditions: Cmpd 2 μM: 0.01, 0.0032, 0.001, 0.0003, 0.0001, 0
Text: The combination results were completed in duplicate with each assay consisting of 4 technical repeats.
The combination results were completed in duplicate with each assay consisting of 4 technical repeats. In this assay system, the combination results in additive inhibition of HBV DNA.

[1] = HepDE19, read-out: AVERAGE % INHIBITION, Expt 1
[2] = HepDE19, read-out: AVERAGE % INHIBITION, Expt 2
[3] = HepDE19, read-out: AVERAGE % INHIBITION, Expt 3
[4] = HepDE19, read-out: AVERAGE % INHIBITION, Expt 4

CC(C)OC(=O)[C@H](C)N[P@](=O)(CO[C@H](C)Cn1cnc2c(N)ncnc21)Oc1ccccc1 [TAF, tenofovir alafenamide]
inhibition at 0.002 µM (HBV rcDNA; [1]): -55.3%
inhibition at 0.007 µM (HBV rcDNA; [1]): -30.2%
inhibition at 0.02 µM (HBV rcDNA; [1]): -1.17%
inhibition at 0.06 µM (HBV rcDNA; [1]): 67%
inhibition at 0.002 µM (HBV rcDNA; [2]): 9.84%
inhibition at 0.007 µM (HBV rcDNA; [2]): 24.9%
inhibition at 0.02 µM (HBV rcDNA; [2]): 65.5%
inhibition at 0.06 µM (HBV rcDNA; [2]): 89.4%
inhibition at 0.001 µM (HBV rcDNA; [3]): -134%
inhibition at 0.003 µM (HBV rcDNA; [3]): -49.2%
inhibition at 0.005 µM (HBV rcDNA; [3]): -42.3%
inhibition at 0.01 µM (HBV rcDNA; [3]): -48.4%
inhibition at 0.02 µM (HBV rcDNA; [3]): -34.3%
inhibition at 0.04 µM (HBV rcDNA; [3]): 37%
inhibition at 0.08 µM (HBV rcDNA; [3]): 57.1%
inhibition at 0.16 µM (HBV rcDNA; [3]): 88%
inhibition at 0.32 µM (HBV rcDNA; [3]): 94.8%
inhibition at 0.001 µM (HBV rcDNA; [4]): 9.66%
inhibition at 0.003 µM (HBV rcDNA; [4]): -0.11%
inhibition at 0.005 µM (HBV rcDNA; [4]): -1.36%
inhibition at 0.01 µM (HBV rcDNA; [4]): 0.94%
inhibition at 0.02 µM (HBV rcDNA; [4]): 36.6%
inhibition at 0.04 µM (HBV rcDNA; [4]): 61.8%
inhibition at 0.08 µM (HBV rcDNA; [4]): 57.2%
inhibition at 0.16 µM (HBV rcDNA; [4]): 83.6%
inhibition at 0.32 µM (HBV rcDNA; [4]): 95.9%
EC50 (HBV rcDNA; HepDE19, read-out: Avg. Inhibitor B EC50): 44 nM
Average percent of cell viability vs control (HepG2.2.15 cells; TAF 0.0002 μM): 103.95%
Average percent of cell viability vs control (HepG2.2.15 cells; TAF 0.0006 μM): 104.32%
Average percent of cell viability vs control (HepG2.2.15 cells; TAF 0.0020 μM): 103.73%
Average percent of cell viability vs control (HepG2.2.15 cells; TAF 0.0064 μM): 101.18%
Average percent of cell viability vs control (HepG2.2.15 cells; TAF 0.0201 μM): 101.33%
Average percent of cell viability vs control (HepG2.2.15 cells; TAF 0.0634 μM): 103.56%
Average percent of cell viability vs control (HepG2.2.15 cells; TAF 0.2002 μM): 96.48%
Average percent of cell viability vs control (HepG2.2.15 cells; TAF 0.6329 μM): 80.67%
Average percent of cell viability vs control (HepG2.2.15 cells; TAF 2.0 μM): 88.67%
